From patent US7056917B2, “Drug efflux pump inhibitor” (Daiichi Pharmaceutical Co., Ltd., priority 2001, dated 2006)

Legend:
Assay type in all cases: cell-based
[1] = test system: Pseudomonas aeruginosa PAM 1723 strain highly expressing the drug efflux pump; assay: Effect of combined use with antimicrobial agent (levofloxacin, aztreonam) on multidrug resistant Pseudomonas aeruginosa; settings: 18 hours, MHB; for MPC8 AZT: minimum concentration of test compound required to enhance antibacterial activity of aztreonam at 1/8 or less of MIC; for MPC4 LVFX: minimum concentration of test compound required to enhance antibacterial activity of levofloxacin applied at 1/4 of MIC; for MPC8 LVFX: minimum concentration of test compound required to enhance antibacterial activity of levofloxacin applied at 1/8 or less of MIC
Excerpt: Effect of Combined Use with Antimicrobial Agent on Multidrug Resistant Pseudomonas aeruginosa
As multidrug resistant Pseudomonas aeruginosa, Pseudomonas aeruginosa PAM 1723 strain highly expressing the drug efflux pump was used. As antimicrobial drugs for the combinational uses, levofloxacin (LVFX) as a quinolone antibacterial agent and aztreonam (AZT) as a monobactam antibiotic were used. Each of the compounds shown in Table 1 with Example No., which falls within the compounds of the present invention, was subjected to the measurement of its minimum concentration (μg/ml) that was required to enhance the antibacterial activity of levofloxacin when the test compound was used in combination with levofloxacin applied at a concentration of 1/4, or 1/8 or less of the minimum inhibitory concentration against the PAM 1723 strain. […] Effects as combinational uses for 18 hours was indicated for each of the drugs. Effects were determined by visually observing the turbidity of the medium. The Müller-Hinton broth (MHB, Difco) was used as a medium, and the inoculum of the bacteria was 1×10^6 CFU/ml.

[2] = test system: Pseudomonas aeruginosa PAM 1723 (a strain highly expressing MexAB-OprM drug efflux pump); assay: Combined use of drug efflux pump inhibitor and disinfectant, broth dilution method; settings: for enhancement of activity of the disinfectant on PAM 1723: combined use with 10 μg/ml of the compound of Example 26
Description: Effect of Combined Use of Drug Efflux Pump Inhibitor and Disinfectant
Effects of a combined use of a drug efflux pump inhibitor and alkyldiaminoethylglycine hydrochloride (AEG, trade name: Tego 51) or chlorhexidine gluconate (CHG, trade name: Hibiten) on Pseudomonas aeruginosa PAM 1723 (a strain highly expressing MexAB-OprM drug efflux pump) was determined by the broth dilution method. The compound of Example 26 was added at a final concentration of 10 μg/ml to Mueller-Hinton broth (MHB) containing a disinfectant at a concentration after 2-fold serial dilution. The amount of the test bacteria inoculated was 1×10^6 CFU/ml, and after standing cultivation at 37° C. for 18 hours, the culture was observed by visual inspection. The minimum concentration that gave no turbidity as in the control of MHB was determined as MIC.

[3] = test system: Pseudomonas aeruginosa wild strain PAM 1020; assay: Combined use of a pump inhibitor, levofloxacin (LVFX) and meropenem (MEPM) evaluated by the three-dimensional checker board method; settings: for FIC index: PAM 1020
Description: (1) Effect of Combined Used of a Pump Inhibitor, Levofloxacin (LVFX) and Meropenem (MEPM) Evaluated by the Three-Dimensional Checker Board Method
The effect was measured by the three-dimensional checker board method by using Pseudomonas aeruginosa wild strain PAM 1020. The test strain was inoculated into Mueller-Hinton broth containing LVFX, MEPM (at 11 concentration levels and 0 μg/ml) and the compound of Example 26 (40-0.625 μg/ml and 0 μg/ml) at a concentration of 10^6 CFU/ml and cultured at 37° C. for 18 hours. Then, MIC was measured for sole and combined use. Measurement was performed by the checker board method and FIC index was calculated according to the following equation. FIC index=a/a0+b/b0+c/c0 wherein a0: MIC for Agent A used alone, a: MIC for Agent A when Agents A, B and C are used in combination, b0: MIC for Agent B used alone, b: MIC for Agent B when Agents A, B and C are used in combination, c0: MIC for Agent C used alone, c: MIC for Agent C when Agents A, B and C are used in combination.
It was determined that there was synergistic effect when FIC index was 0.75 or less, additive effect or weak synergistic effect when the index was more than 0.75 but not more than 1.125, no effect of combined use when the index was more than 1.125 but not more than 3.0, and antagonistic effect when the index was more than 3.0.

[4] = combined with compound of Example 26 at 10 μg/ml, PAM 1723, 37° C. 18 hours
[5] = compound of Example 26 at 10 μg/ml, PAM 1723
[6] = disinfectant alone, PAM 1723, 37° C. 18 hours

CC(C)c1csc(CCc2ccn3c(=O)c(/C=C/C(=O)O)c(-c4ccncc4)nc3c2)n1 [Example 130]
MPC8 AZT [1]: 8 µg/mL
MPC4 LVFX [1]: 2 µg/mL
MPC8 LVFX [1]: 8 µg/mL

alkyldiaminoethylglycine hydrochloride [AEG]
enhancement of activity of the disinfectant on PAM 1723 [2]: two times
MIC AEG Combined use [2, 4]: 32 µg/mL
AEG Ratio of MIC values for single use of the disinfectant and combined use with the compound of Example 26 [2, 5]: 2
MIC AEG Single use [2, 6]: 64 µg/mL

N=C(NCCCCCCNC(=N)NC(=N)Nc1ccc(Cl)cc1)NC(=N)Nc1ccc(Cl)cc1.O=C(O)[C@H](O)[C@@H](O)[C@H](O)[C@H](O)CO.O=C(O)[C@H](O)[C@@H](O)[C@H](O)[C@H](O)CO [CHG, chlorhexidine gluconate]
enhancement of activity of the disinfectant on PAM 1723 [2]: four times
MIC CHG Combined use [2, 4]: 4 µg/mL
CHG Ratio of MIC values for single use of the disinfectant and combined use with the compound of Example 26 [2, 5]: 4
MIC CHG Single use [2, 6]: 16 µg/mL

CC(C)c1csc(/C=C/c2ccn3c(=O)c(/C=C/C(=O)O)c(OCC4CCOC4)nc3c2)n1 (stereo not drawn) [Example 117, (E)-3-{8-[(E)-2-(4-Isopropyl-1,3-thiazol-2-yl)-1-ethenyl]-4-oxo-2-(tetrahydro-3-furanylmethoxy)-4H-pyrido[1,2-a]pyrimidin-3-yl}-2-propenoic acid]
MPC8 AZT [1]: 4 µg/mL
MPC4 LVFX [1]: 1 µg/mL
MPC8 LVFX [1]: 4 µg/mL

CC(C)c1csc(/C=C/c2ccn3c(=O)c(/C=C/c4nnn[nH]4)c(N4CCCC(O)C4)nc3c2)n1 (stereo not drawn) [Example 104, 2-(3-Hydroxypiperidino)-8-[(E)-2-(4-isopropyl-1,3-thiazol-2-yl)-1-ethenyl]-3-[(E)-2-(1H-1,2,3,4-tetrazol-5-yl)-1-ethenyl]-4H-pyrido[1,2-a]pyrimidin-4-one]
MPC8 AZT [1]: 0.5 µg/mL
MPC4 LVFX [1]: 0.24 µg/mL
MPC8 LVFX [1]: 1 µg/mL

CC(C)c1csc(CCc2ccn3c(=O)c(/C=C/C(=O)O)c(N4CCCC(O)C4)nc3c2)n1 (stereo not drawn) [Example 26]
MPC8 AZT [1]: 1 µg/mL
MPC4 LVFX [1]: 0.25 µg/mL
MPC8 LVFX [1]: 1 µg/mL
FIC index ([3]; LVFX + MEPM 0.016 μg/ml + compound of Example 26 0.625 μg/ml): 1.039
FIC index ([3]; LVFX + MEPM 0.016 μg/ml + compound of Example 26 1.25 μg/ml): 1.047
FIC index ([3]; LVFX + MEPM 0.016 μg/ml + compound of Example 26 2.5 μg/ml): 1.063
FIC index ([3]; LVFX + MEPM 0.016 μg/ml + compound of Example 26 5 μg/ml): 0.594
FIC index ([3]; LVFX + MEPM 0.016 μg/ml + compound of Example 26 10 μg/ml): 0.656
FIC index ([3]; LVFX + MEPM 0.016 μg/ml + compound of Example 26 20 μg/ml): 0.781
FIC index ([3]; LVFX + MEPM 0.016 μg/ml + compound of Example 26 40 μg/ml): 1.031
FIC index ([3]; LVFX + MEPM 0.0313 μg/ml + compound of Example 26 0.625 μg/ml): 1.07
FIC index ([3]; LVFX + MEPM 0.0313 μg/ml + compound of Example 26 1.25 μg/ml): 1.078
FIC index ([3]; LVFX + MEPM 0.0313 μg/ml + compound of Example 26 2.5 μg/ml): 0.5938
FIC index ([3]; LVFX + MEPM 0.0313 μg/ml + compound of Example 26 5 μg/ml): 0.625
FIC index ([3]; LVFX + MEPM 0.0313 μg/ml + compound of Example 26 10 μg/ml): 0.6875
FIC index ([3]; LVFX + MEPM 0.0313 μg/ml + compound of Example 26 20 μg/ml): 0.8125
FIC index ([3]; LVFX + MEPM 0.0313 μg/ml + compound of Example 26 40 μg/ml): 1.0625
FIC index ([3]; LVFX + MEPM 0.0625 μg/ml + compound of Example 26 0.625 μg/ml): 1.133
FIC index ([3]; LVFX + MEPM 0.0625 μg/ml + compound of Example 26 1.25 μg/ml): 0.641
FIC index ([3]; LVFX + MEPM 0.0625 μg/ml + compound of Example 26 2.5 μg/ml): 0.656
FIC index ([3]; LVFX + MEPM 0.0625 μg/ml + compound of Example 26 5 μg/ml): 0.438
FIC index ([3]; LVFX + MEPM 0.0625 μg/ml + compound of Example 26 10 μg/ml): 0.500
FIC index ([3]; LVFX + MEPM 0.0625 μg/ml + compound of Example 26 20 μg/ml): 0.500
FIC index ([3]; LVFX + MEPM 0.0625 μg/ml + compound of Example 26 40 μg/ml): 0.750
FIC index ([3]; LVFX + MEPM 0.125 μg/ml + compound of Example 26 0.625 μg/ml): 0.781
FIC index ([3]; LVFX + MEPM 0.125 μg/ml + compound of Example 26 1.25 μg/ml): 0.563
FIC index ([3]; LVFX + MEPM 0.125 μg/ml + compound of Example 26 2.5 μg/ml): 0.500
FIC index ([3]; LVFX + MEPM 0.125 μg/ml + compound of Example 26 5 μg/ml): 0.563
FIC index ([3]; LVFX + MEPM 0.125 μg/ml + compound of Example 26 10 μg/ml): 0.766
FIC index ([3]; LVFX + MEPM 0.25 μg/ml + compound of Example 26 0.625 μg/ml): 1.063
MIC ([3]; Pseudomonas aeruginosa, agent used alone, PAM 1020 strain): ≥ 80 µg/mL

CC(C)(C)c1csc(NC(=O)c2ccn3c(=O)c(-c4nnn[nH]4)cnc3c2)n1 [Example 10, N8-[4-(tert-Butyl)-1,3-thiazol-2-yl]-4-oxo-3-(2H-1,2,3,4-tetrazol-5-yl)-4H-pyrido[1,2-a]pyrimidine-8-carboxamide]
MPC8 AZT [1]: 4 µg/mL
MPC4 LVFX [1]: 2 µg/mL
MPC8 LVFX [1]: 16 µg/mL

CC(C)c1csc(/C=C/c2ccn3c(=O)c(/C=C/C(=O)O)c(N4CCN(C(=O)[C@@H](N)CCCNC(=N)N)CC4)nc3c2)n1 [Example 78, (E)-3-{2-[4-((2 S)-2-Amino-5-{[amino(imino)methyl]amino}pentanoyl)-piperazino]-8-[(E)-2-(4-isopropyl-1,3-thiazol-2-yl)-1-ethenyl]-4-oxo-4H-pyrido[1,2-a]-pyrimidin-3-yl}-2-propenoic acid]
MPC8 AZT [1]: 1 µg/mL
MPC4 LVFX [1]: 0.5 µg/mL
MPC8 LVFX [1]: 1 µg/mL

CC(C)c1csc(CCc2ccn3c(=O)c(/C=C/C(=O)NS(C)(=O)=O)c(N4CCOCC4)nc3c2)n1 [Example 98, N-((E)-3-{8-[2-(4-Isopropyl-1,3-thiazol-2-yl)ethyl]-2-morpholino-4-oxo-4H -pyrido[1,2-a]pyrimidin-3-yl}-2-propenoyl)methanesulfonamide]
MPC8 AZT [1]: 4 µg/mL
MPC4 LVFX [1]: 1 µg/mL
MPC8 LVFX [1]: 4 µg/mL
